Data as given in patent publication US12415834B2, “GhR-binding peptide and composition comprising same” (priority 2021, dated 2025).
Starred links: 1 amine or outer side, 2 acyl side, 3 side chain; linkers in the order of their positions; H or OH if unused. Positions of bridges follow the written chain, without caps; N, C: chain ends. Non-standard residues stand in square brackets, D forms with d. Residues, ends and D or L forms follow the SMILES beside them. Groups on a side chain read outwards from the residue. *: point of attachment. X14 = NC(=O)[C@H](CCCCN*)NC(=O)COCCOCCNC(=O)COCCOCCNC(=O)CC[C@H](NC(=O)CC[C@H](NC(=O)CCCCCCCCCCCCCCC(=O)O)C(=O)O)C(=O)O; X3 = NC(=O)[C@H](CCCCN*)NC(=O)CC[C@H](NC(=O)CC[C@H](NC(=O)CCCCCCCCCCCCCCC(=O)O)C(=O)O)C(=O)O; X19 = Cc1ccc(CCCC(=O)N[C@@H](CCC(=O)N[C@@H](CCC(=O)N[C@@H](CCCCN*)C(N)=O)C(=O)O)C(=O)O)cc1; X20 = CC(=O)N[C@@H](CCC(=O)N[C@@H](CCC(=O)N[C@@H](CCCCN*)C(N)=O)C(=O)O)C(=O)O; Trp(1-CH2CO) = O=C([C@H](Cc1cn(CC(=O)[*:3])c2ccccc12)N[*:1])[*:2]; Trp(5-OMe) = COc1ccc2[nH]cc(C[C@H](N)C(=O)O)c2c1; Butanoyl(4-(4-I-phenyl)) = O=C(CCCc1ccc(I)cc1)*; Trp(5-OH) = N[C@@H](Cc1c[nH]c2ccc(O)cc12)C(=O)O; Phe(4-COOH) = N[C@@H](Cc1ccc(C(=O)O)cc1)C(=O)O; Piperazinyl(4-CH2COOH) = O=C(O)CN1CCN(*)CC1; X7 = O=C(O)CN1CCC(N[*:1])(C(=O)[*:2])CC1; C16 diacid = O=C(O)CCCCCCCCCCCCCCC(=O)*; γGlu = O=C(O)[C@H](CCC(=O)[*:2])N[*:1]; X9 = O=C(CCCc1ccc(-c2ccccc2)cc1)*; NMeK = CN[C@@H](CCCCN)C(=O)O; Aib = CC(C)(N)C(=O)O; CO = O=C([*:1])[*:2]

What follows are compounds tested against T1, Recombinant human GhR-Fc protein (Homo sapiens, UniProt P10912) (assay: SPR binding assay (Biacore T200, single-cycle kinetics) of peptides against immobilized human GhR-Fc). Details: not given.
T1 construct: purchased R&D Systems
Method: SPR assay was performed using Biacore T200 (cytiva: Former GE Healthcare). After the equilibration of Series S Sensor Chip CM5 (produced by cytiva: Former GE Healthcare) with Running Buffer (HBS-EP with 1% (v/v) DMSO), an EDC/NHS mixture was injected at a flow rate of 10 μL/min for 7 minutes to thereby activate the functional groups on sensor chip. Recombinant human GhR-Fc protein (R&D Systems) in 10 mM Acetate (pH 4.0) was injected immobilized to at a flow rate of 5 μL/min. It took 7 minutes to immobilize the GhR on the substrate surfaces of the sensor chip. Then Ethanolamine was injected at a flow rate of 10 μL/min for 7 minutes. 1M Ethanolamine (aq.) was injected at a flow rate of 10 μL/min for 420 seconds for capping.
Using these Peptide Samples, kinetics of peptides against human GhR-Fc protein were measured. The method adopted for sample measurement was a single-cycle kinetics method. The analysis was conducted using the evaluation software provided with Biacore T200. A DMSO correction curve obtained by solvent correction measurements was applied for the analysis. Kinetics fitting was done on the difference data obtained by subtracting the baseline data from sample measurement data. KD values were calculated based on the association rate constant (ka) and dissociation rate constant (kd). […]

T1 sequence (P10912 with tags, fused parts or gaps limits assumed): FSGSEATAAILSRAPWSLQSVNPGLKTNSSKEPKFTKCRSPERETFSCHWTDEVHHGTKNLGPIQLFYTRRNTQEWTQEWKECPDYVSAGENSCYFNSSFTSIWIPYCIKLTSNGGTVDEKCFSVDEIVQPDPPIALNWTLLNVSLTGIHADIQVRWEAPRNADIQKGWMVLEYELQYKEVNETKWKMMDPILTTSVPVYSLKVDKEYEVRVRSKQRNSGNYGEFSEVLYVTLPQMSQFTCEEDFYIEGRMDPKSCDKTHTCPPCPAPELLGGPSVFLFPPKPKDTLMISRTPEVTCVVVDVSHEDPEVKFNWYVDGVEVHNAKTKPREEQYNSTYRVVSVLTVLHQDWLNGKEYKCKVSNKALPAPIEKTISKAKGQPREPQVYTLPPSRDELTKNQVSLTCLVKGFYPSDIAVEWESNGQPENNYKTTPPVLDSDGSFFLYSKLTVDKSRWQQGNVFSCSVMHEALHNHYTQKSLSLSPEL

Compound | Kd
COc1ccc2[nH]cc(C[C@@H]3NC(=O)[C@H](CC(N)=O)NC(=O)[C@H](CO)NC(=O)[C@H](C(C)C)NC(=O)[C@H](C(C)C)NC(=O)[C@H](CCCCNC(=O)CC[C@H](NC(=O)CCCc4ccc(-c5ccccc5)cc4)C(=O)O)N(C)C(=O)[C@H](Cc4ccc(O)cc4)NC(=O)CSC[C@@H](C(=O)NCC(=O)N4CCC[C@H]4C(=O)N[C@H](CO)C(=O)N[C@H](CO)C(=O)N[C@H](CO)C(N)=O)NC(=O)[C@H](C(C)C)NC(=O)C(C)(C)NC(=O)[C@H](Cc4c[nH]c5ccc(O)cc45)NC(=O)[C@H](CCCCN)NC(=O)[C@H](Cc4ccc(C(=O)O)cc4)NC3=O)c2c1 [Compound 56] ({CH2CO}-Y[NMeK]([γGlu-X9])VVSN[Trp(5-OMe)][Phe(4-COOH)]K[Trp(5-OH)][Aib]VCGP[dS][dS][dS]-NH2; thioether N-13) | 2.87 nM

Same assay, conditions: SPR, hGhR; Table 1 bicyclic peptides; KD calculated from ka and kd; read-out: KD

Compound | Kd
CC(C)[C@@H]1NC(=O)[C@H](C(C)C)NC(=O)[C@@H]2CCCCNC(=O)Cn3cc(c4ccccc43)C[C@H](NC(=O)[C@H](CC(N)=O)NC(=O)[C@H](CO)NC1=O)C(=O)N[C@@H](Cc1ccc(O)cc1)C(=O)N[C@@H](CCCCN)C(=O)N[C@@H](Cc1c[nH]c3ccc(O)cc13)C(=O)NC(C)(C)C(=O)N[C@@H](C(C)C)C(=O)N[C@H](C(=O)NCCCC[C@H](NC(=O)CC[C@H](NC(=O)CC[C@H](NC(=O)CCCCCCCCCCCCCCC(=O)O)C(=O)O)C(=O)O)C(N)=O)CSCC(=O)N[C@@H](Cc1ccc(C(=O)O)cc1)C(=O)N2C [Compound 19] ({CH2CO}-[Phe(4-COOH)][NMeK]VVSN[Trp(1-CH2CO)]YK[Trp(5-OH)][Aib]VC-X3; lactam 2-7; thioether N-13) | 1.93 nM
CC(C)[C@@H]1NC(=O)[C@H](C(C)C)NC(=O)[C@@H]2CCCCNC(=O)Cn3cc(c4ccccc43)C[C@H](NC(=O)[C@H](CC(N)=O)NC(=O)[C@H](CO)NC1=O)C(=O)N[C@@H](Cc1ccc(C(=O)O)cc1)C(=O)N[C@@H](CCCCN)C(=O)N[C@@H](Cc1c[nH]c3ccc(O)cc13)C(=O)NC(C)(C)C(=O)N[C@@H](C(C)C)C(=O)N[C@H](C(=O)NCCCC[C@H](NC(=O)COCCOCCNC(=O)COCCOCCNC(=O)CC[C@H](NC(=O)CC[C@H](NC(=O)CCCCCCCCCCCCCCC(=O)O)C(=O)O)C(=O)O)C(N)=O)CSCC(=O)N[C@@H](Cc1ccc(C(=O)O)cc1)C(=O)N2C [Compound 64] ({CH2CO}-[Phe(4-COOH)][NMeK]VVSN[Trp(1-CH2CO)][Phe(4-COOH)]K[Trp(5-OH)][Aib]VC-X14; lactam 2-7; thioether N-13) | 3.61 nM
Cc1ccc(CCCC(=O)N[C@@H](CCC(=O)N[C@@H](CCC(=O)N[C@@H](CCCCNC(=O)[C@@H]2CSCC(=O)N[C@@H](Cc3ccc(C(=O)O)cc3)C(=O)N(C)[C@H]3CCCCNC(=O)Cn4cc(c5ccccc54)C[C@H](NC(=O)[C@H](CC(N)=O)NC(=O)[C@H](CO)NC(=O)[C@H](C(C)C)NC(=O)[C@H](C(C)C)NC3=O)C(=O)N[C@@H](Cc3ccc(C(=O)O)cc3)C(=O)N[C@@H](CCCCN)C(=O)N[C@@H](Cc3c[nH]c4ccc(O)cc34)C(=O)NC(C)(C)C(=O)N[C@@H](C(C)C)C(=O)N2)C(N)=O)C(=O)O)C(=O)O)cc1 [Compound 12] ({CH2CO}-[Phe(4-COOH)][NMeK]VVSN[Trp(1-CH2CO)][Phe(4-COOH)]K[Trp(5-OH)][Aib]VC-X19; lactam 2-7; thioether N-13) | 1.95 nM
CC(=O)N[C@@H](CCC(=O)N[C@@H](CCC(=O)N[C@@H](CCCCNC(=O)[C@@H]1CSCC(=O)N[C@@H](Cc2ccc(C(=O)O)cc2)C(=O)N(C)[C@H]2CCCCNC(=O)Cn3cc(c4ccccc43)C[C@H](NC(=O)[C@H](CC(N)=O)NC(=O)[C@H](CO)NC(=O)[C@H](C(C)C)NC(=O)[C@H](C(C)C)NC2=O)C(=O)N[C@@H](Cc2ccc(C(=O)O)cc2)C(=O)N[C@@H](CCCCN)C(=O)N[C@@H](Cc2c[nH]c3ccc(O)cc23)C(=O)NC(C)(C)C(=O)N[C@@H](C(C)C)C(=O)N1)C(N)=O)C(=O)O)C(=O)O [Compound 58] ({CH2CO}-[Phe(4-COOH)][NMeK]VVSN[Trp(1-CH2CO)][Phe(4-COOH)]K[Trp(5-OH)][Aib]VC-X20; lactam 2-7; thioether N-13) | 3.51 nM
CC(C)[C@@H]1NC(=O)[C@H](C(C)C)NC(=O)[C@@H]2CCCCNC(=O)Cn3cc(c4ccccc43)C[C@H](NC(=O)[C@H](CC(N)=O)NC(=O)[C@H](CO)NC1=O)C(=O)N[C@@H](Cc1ccc(O)cc1)C(=O)N[C@@H](CCCCNC(=O)N1CCN(CC(=O)O)CC1)C(=O)N[C@@H](Cc1c[nH]c3ccc(O)cc13)C(=O)NC(C)(C)C(=O)N[C@@H](C(C)C)C(=O)N[C@H](C(=O)NCCCC[C@H](NC(=O)CC[C@H](NC(=O)CC[C@H](NC(=O)CCCCCCCCCCCCCCC(=O)O)C(=O)O)C(=O)O)C(N)=O)CSCC(=O)N[C@@H](Cc1ccc(C(=O)O)cc1)C(=O)N2C [Compound 17] ({CH2CO}-[Phe(4-COOH)][NMeK]VVSN[Trp(1-CH2CO)]YK([CO-Piperazinyl(4-CH2COOH)])[Trp(5-OH)][Aib]VC-X3; lactam 2-7; thioether N-13) | 4.1 nM
CC(C)[C@@H]1NC(=O)[C@H](C(C)C)NC(=O)[C@@H]2CCCCNC(=O)Cn3cc(c4ccccc43)C[C@H](NC(=O)[C@H](CC(N)=O)NC(=O)[C@H](CO)NC1=O)C(=O)N[C@@H](Cc1ccc(O)cc1)C(=O)N[C@@H](CCCCN)C(=O)N[C@@H](Cc1c[nH]c3ccc(O)cc13)C(=O)NC1(CCN(CC(=O)O)CC1)C(=O)N[C@@H](C(C)C)C(=O)N[C@H](C(=O)NCC(=O)N1CCC[C@H]1C(=O)N[C@H](CO)C(=O)N[C@H](CO)C(=O)N[C@H](CO)C(=O)N[C@@H](CCCCNC(=O)CC[C@H](NC(=O)CC[C@H](NC(=O)CCCCCCCCCCCCCCC(=O)O)C(=O)O)C(=O)O)C(N)=O)CSCC(=O)N[C@@H](Cc1ccc(O)cc1)C(=O)N2C [Compound 30] ({CH2CO}-Y[NMeK]VVSN[Trp(1-CH2CO)]YK[Trp(5-OH)][X7]VCGP[dS][dS][dS]K([γGlu-γGlu-C16 diacid])-NH2; lactam 2-7; thioether N-13) | 2.26 nM

Same assay, conditions: SPR, hGhR; Table 2 monocyclic peptides; KD calculated from ka and kd; read-out: KD

Compound | Kd
COc1ccc2[nH]cc(C[C@@H]3NC(=O)[C@H](CC(N)=O)NC(=O)[C@H](CO)NC(=O)[C@H](C(C)C)NC(=O)[C@H](C(C)C)NC(=O)[C@H](CCCCNC(=O)CC[C@H](NC(=O)CC[C@H](NC(=O)CCCc4ccc(I)cc4)C(=O)O)C(=O)O)N(C)C(=O)[C@H](Cc4ccc(O)cc4)NC(=O)CSC[C@@H](C(N)=O)NC(=O)[C@H](C(C)C)NC(=O)C(C)(C)NC(=O)[C@H](Cc4c[nH]c5ccc(O)cc45)NC(=O)[C@H](CCCCN)NC(=O)[C@H](Cc4ccc(C(=O)O)cc4)NC3=O)c2c1 [Compound 53] ({CH2CO}-Y[NMeK]([γGlu-γGlu-Butanoyl(4-(4-I-phenyl))])VVSN[Trp(5-OMe)][Phe(4-COOH)]K[Trp(5-OH)][Aib]VC-NH2; thioether N-13) | 3.36 nM
COc1ccc2[nH]cc(C[C@@H]3NC(=O)[C@H](CC(N)=O)NC(=O)[C@H](CO)NC(=O)[C@H](C(C)C)NC(=O)[C@H](C(C)C)NC(=O)[C@H](CCCCNC(=O)CC[C@H](NC(=O)CC[C@H](NC(=O)CCCc4ccc(I)cc4)C(=O)O)C(=O)O)N(C)C(=O)[C@H](Cc4ccc(O)cc4)NC(=O)CSC[C@@H](C(N)=O)NC(=O)[C@H](C(C)C)NC(=O)C4(CCN(CC(=O)O)CC4)NC(=O)[C@H](Cc4c[nH]c5ccc(O)cc45)NC(=O)[C@H](CCCCN)NC(=O)[C@H](Cc4ccc(C(=O)O)cc4)NC3=O)c2c1 [Compound 50] ({CH2CO}-Y[NMeK]([γGlu-γGlu-Butanoyl(4-(4-I-phenyl))])VVSN[Trp(5-OMe)][Phe(4-COOH)]K[Trp(5-OH)][X7]VC-NH2; thioether N-13) | 4.13 nM
COc1ccc2[nH]cc(C[C@@H]3NC(=O)[C@H](CC(N)=O)NC(=O)[C@H](CO)NC(=O)[C@H](C(C)C)NC(=O)[C@H](C(C)C)NC(=O)[C@H](CCCCNC(=O)CC[C@H](NC(=O)CCCc4ccc(I)cc4)C(=O)O)N(C)C(=O)[C@H](Cc4ccc(O)cc4)NC(=O)CSC[C@@H](C(=O)NCC(=O)N4CCC[C@H]4C(=O)N[C@H](CO)C(=O)N[C@H](CO)C(=O)N[C@H](CO)C(N)=O)NC(=O)[C@H](C(C)C)NC(=O)C4(CCN(CC(=O)O)CC4)NC(=O)[C@H](Cc4c[nH]c5ccc(O)cc45)NC(=O)[C@H](CCCCN)NC(=O)[C@H](Cc4ccc(C(=O)O)cc4)NC3=O)c2c1 [Compound 51] ({CH2CO}-Y[NMeK]([γGlu-Butanoyl(4-(4-I-phenyl))])VVSN[Trp(5-OMe)][Phe(4-COOH)]K[Trp(5-OH)][X7]VCGP[dS][dS][dS]-NH2; thioether N-13) | 7.57 nM
COc1ccc2[nH]cc(C[C@@H]3NC(=O)[C@H](CC(N)=O)NC(=O)[C@H](CO)NC(=O)[C@H](C(C)C)NC(=O)[C@H](C(C)C)NC(=O)[C@H](CCCCNC(=O)CC[C@H](NC(=O)CCCc4ccc(I)cc4)C(=O)O)N(C)C(=O)[C@H](Cc4ccc(O)cc4)NC(=O)CSC[C@@H](C(=O)NCC(=O)N4CCC[C@H]4C(=O)N[C@H](CO)C(=O)N[C@H](CO)C(=O)N[C@H](CO)C(N)=O)NC(=O)[C@H](C(C)C)NC(=O)C(C)(C)NC(=O)[C@H](Cc4c[nH]c5ccc(O)cc45)NC(=O)[C@H](CCCCN)NC(=O)[C@H](Cc4ccc(C(=O)O)cc4)NC3=O)c2c1 [Compound 54] ({CH2CO}-Y[NMeK]([γGlu-Butanoyl(4-(4-I-phenyl))])VVSN[Trp(5-OMe)][Phe(4-COOH)]K[Trp(5-OH)][Aib]VCGP[dS][dS][dS]-NH2; thioether N-13) | 2.08 nM
